Columns and labels:
[1] = biological target: Serine/threonine-protein kinase PAK 2 (Homo sapiens) (UniProt Q13177); assay: Inhibition of human truncated PAK2 expressed in Escherichia coli cell assessed as substrate phosphorylation using fluorescence-labelled peptides as substrate at 9 uM after 90 mins by microfluidic peptide phosphorylation assay
[2] = biological target: Ribosomal protein S6 kinase alpha-3 (Homo sapiens) (UniProt P51812); assay: Inhibition of human full length RSK2 expressed in baculovirus assessed as substrate phosphorylation using fluorescence-labelled peptides as substrate at 9 uM after 90 mins by microfluidic peptide phosphorylation assay
[3] = biological target: T1, cGMP-dependent protein kinase 1 (Homo sapiens) (UniProt Q13976); assay: Inhibition of human full length PKG-1a expressed in baculovirus assessed as substrate phosphorylation using fluorescence-labelled peptides as substrate at 0.06 uM after 90 mins by microfluidic peptide phosphorylation assay
T1 sequence (whole entry): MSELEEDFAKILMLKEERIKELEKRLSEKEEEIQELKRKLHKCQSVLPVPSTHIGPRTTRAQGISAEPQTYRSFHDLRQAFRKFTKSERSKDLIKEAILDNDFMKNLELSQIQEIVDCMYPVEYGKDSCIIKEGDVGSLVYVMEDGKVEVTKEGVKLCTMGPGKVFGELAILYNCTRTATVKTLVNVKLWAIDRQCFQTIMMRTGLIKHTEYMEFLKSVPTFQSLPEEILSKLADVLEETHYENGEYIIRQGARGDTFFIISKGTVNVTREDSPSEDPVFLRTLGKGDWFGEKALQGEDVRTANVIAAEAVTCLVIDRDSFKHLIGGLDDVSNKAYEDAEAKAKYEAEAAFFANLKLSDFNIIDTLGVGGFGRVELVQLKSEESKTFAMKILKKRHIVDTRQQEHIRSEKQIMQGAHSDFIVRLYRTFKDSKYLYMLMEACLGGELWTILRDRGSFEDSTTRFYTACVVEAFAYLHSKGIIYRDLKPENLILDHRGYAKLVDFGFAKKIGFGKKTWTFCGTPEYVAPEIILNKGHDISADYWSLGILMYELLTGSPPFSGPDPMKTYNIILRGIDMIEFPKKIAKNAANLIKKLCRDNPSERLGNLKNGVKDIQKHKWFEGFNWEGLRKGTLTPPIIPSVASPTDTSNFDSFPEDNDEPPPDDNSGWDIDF

Homo sapiens = organism: Homo sapiens; conditions: 0.1 uM
Description: Inhibition of human full length PKA expressed in baculovirus assessed as substrate phosphorylation using fluorescence-labelled peptides as substrate at 0.1 uM after 90 mins by microfluidic peptide phosphorylation assay

[4] = biological target: T2, Testis-specific serine/threonine-protein kinase 2 (Homo sapiens) (UniProt Q96PF2); assay: Inhibition of human full length TSSK2 expressed in baculovirus assessed as substrate phosphorylation using fluorescence-labelled peptides as substrate at 420 uM after 90 mins by microfluidic peptide phosphorylation assay
T2 sequence (whole entry): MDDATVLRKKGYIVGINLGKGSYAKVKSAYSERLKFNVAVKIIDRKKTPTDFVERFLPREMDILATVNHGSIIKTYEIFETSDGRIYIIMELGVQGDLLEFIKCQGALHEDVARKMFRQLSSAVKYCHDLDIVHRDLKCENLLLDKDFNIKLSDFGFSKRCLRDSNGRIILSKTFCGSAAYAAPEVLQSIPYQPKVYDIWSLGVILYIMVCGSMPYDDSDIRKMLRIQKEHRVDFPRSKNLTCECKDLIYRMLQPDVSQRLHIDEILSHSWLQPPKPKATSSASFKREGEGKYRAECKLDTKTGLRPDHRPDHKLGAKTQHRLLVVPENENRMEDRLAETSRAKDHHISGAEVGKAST

[5] = biological target: Tyrosine-protein kinase Fer (Homo sapiens) (UniProt P16591); assay: Inhibition of human FER catalytic domain expressed in baculovirus assessed as substrate phosphorylation using fluorescence-labelled peptides as substrate at 70 uM after 90 mins by microfluidic peptide phosphorylation assay
[6] = test system: Tyrosine-protein kinase ABL1 (Homo sapiens), P00519 [Q252H]; assay: Inhibition of human truncated ABL Q252H mutant expressed in baculovirus assessed as substrate phosphorylation using fluorescence-labelled peptides as substrate at 70 uM after 90 mins by microfluidic peptide phosphorylation assay
[7] = biological target: Protein kinase C eta type (Homo sapiens) (UniProt P24723); assay: Inhibition of human truncated PKC eta expressed in baculovirus assessed as substrate phosphorylation using fluorescence-labelled peptides as substrate at 70 uM after 90 mins by microfluidic peptide phosphorylation assay
[8] = biological target: Ribosomal protein S6 kinase alpha-5 (Homo sapiens) (UniProt O75582); assay: Inhibition of human full length MSK1 expressed in baculovirus assessed as substrate phosphorylation using fluorescence-labelled peptides as substrate at 70 uM after 90 mins by microfluidic peptide phosphorylation assay
[9] = biological target: T3, Serine/threonine-protein kinase Sgk1 (Homo sapiens) (UniProt O00141); assay: Inhibition of human truncated SGK1 expressed in baculovirus assessed as substrate phosphorylation using fluorescence-labelled peptides as substrate at 0.2 uM after 90 mins by microfluidic peptide phosphorylation assay
T3 sequence (whole entry): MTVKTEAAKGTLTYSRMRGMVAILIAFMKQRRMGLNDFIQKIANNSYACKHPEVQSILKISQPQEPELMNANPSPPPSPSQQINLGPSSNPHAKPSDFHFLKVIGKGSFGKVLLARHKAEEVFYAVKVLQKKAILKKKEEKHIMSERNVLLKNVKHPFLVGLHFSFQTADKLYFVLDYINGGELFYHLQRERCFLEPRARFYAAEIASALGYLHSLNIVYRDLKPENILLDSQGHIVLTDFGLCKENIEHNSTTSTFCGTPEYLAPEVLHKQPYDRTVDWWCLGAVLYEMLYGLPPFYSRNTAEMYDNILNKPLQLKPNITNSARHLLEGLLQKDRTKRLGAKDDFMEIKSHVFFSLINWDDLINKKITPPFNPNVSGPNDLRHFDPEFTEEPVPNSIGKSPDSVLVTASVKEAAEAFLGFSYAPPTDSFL

[10] = biological target: Serine/threonine-protein kinase pim-1 (Homo sapiens) (UniProt P11309); assay: Inhibition of human full length PIM1 expressed in baculovirus assessed as substrate phosphorylation using fluorescence-labelled peptides as substrate at 2 uM after 90 mins by microfluidic peptide phosphorylation assay
[11] = biological target: Tyrosine-protein kinase Lck (Homo sapiens) (UniProt P06239); assay: Inhibition of human full length LCK expressed in baculovirus assessed as substrate phosphorylation using fluorescence-labelled peptides as substrate at 2 uM after 90 mins by microfluidic peptide phosphorylation assay
[12] = biological target: Fibroblast growth factor receptor 4 (Homo sapiens) (UniProt P22455); assay: Inhibition of human FGFR4 catalytic domain expressed in baculovirus assessed as substrate phosphorylation using fluorescence-labelled peptides as substrate at 8 uM after 90 mins by microfluidic peptide phosphorylation assay
[13] = test system: Tyrosine-protein kinase ABL1 (Homo sapiens), P00519 [Q252H]; assay: Inhibition of human truncated ABL Q252H mutant expressed in baculovirus assessed as substrate phosphorylation using fluorescence-labelled peptides as substrate at 8 uM after 90 mins by microfluidic peptide phosphorylation assay
[14] = biological target: Protein kinase C alpha type (Homo sapiens) (UniProt P17252); assay: Inhibition of human truncated PKC alpha expressed in baculovirus assessed as substrate phosphorylation using fluorescence-labelled peptides as substrate at 1000 uM after 90 mins by microfluidic peptide phosphorylation assay

Chain of Ribosomal protein S6 kinase alpha-3 (Homo sapiens) (P51812 whole entry): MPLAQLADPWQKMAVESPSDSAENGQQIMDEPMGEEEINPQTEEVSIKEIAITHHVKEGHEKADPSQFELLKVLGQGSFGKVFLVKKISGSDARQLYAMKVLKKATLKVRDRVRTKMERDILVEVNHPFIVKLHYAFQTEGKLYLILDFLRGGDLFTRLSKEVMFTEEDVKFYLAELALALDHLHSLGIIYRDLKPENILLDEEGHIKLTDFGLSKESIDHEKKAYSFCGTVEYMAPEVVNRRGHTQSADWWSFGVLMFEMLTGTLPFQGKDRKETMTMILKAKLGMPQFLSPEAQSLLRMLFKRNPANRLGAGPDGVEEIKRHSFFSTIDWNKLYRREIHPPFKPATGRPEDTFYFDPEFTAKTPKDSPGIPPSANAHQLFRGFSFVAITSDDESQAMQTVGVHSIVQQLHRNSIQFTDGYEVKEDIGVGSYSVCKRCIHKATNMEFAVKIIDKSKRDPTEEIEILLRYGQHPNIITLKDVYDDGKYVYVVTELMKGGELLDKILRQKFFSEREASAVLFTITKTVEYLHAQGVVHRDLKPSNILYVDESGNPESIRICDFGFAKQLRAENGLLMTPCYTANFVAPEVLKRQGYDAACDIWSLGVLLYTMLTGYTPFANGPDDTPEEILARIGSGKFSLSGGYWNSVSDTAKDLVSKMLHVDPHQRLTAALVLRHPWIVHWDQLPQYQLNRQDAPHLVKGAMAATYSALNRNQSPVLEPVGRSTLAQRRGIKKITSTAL
Chain of Ribosomal protein S6 kinase alpha-5 (Homo sapiens) (O75582 whole entry, looked up, the tested form may be a part): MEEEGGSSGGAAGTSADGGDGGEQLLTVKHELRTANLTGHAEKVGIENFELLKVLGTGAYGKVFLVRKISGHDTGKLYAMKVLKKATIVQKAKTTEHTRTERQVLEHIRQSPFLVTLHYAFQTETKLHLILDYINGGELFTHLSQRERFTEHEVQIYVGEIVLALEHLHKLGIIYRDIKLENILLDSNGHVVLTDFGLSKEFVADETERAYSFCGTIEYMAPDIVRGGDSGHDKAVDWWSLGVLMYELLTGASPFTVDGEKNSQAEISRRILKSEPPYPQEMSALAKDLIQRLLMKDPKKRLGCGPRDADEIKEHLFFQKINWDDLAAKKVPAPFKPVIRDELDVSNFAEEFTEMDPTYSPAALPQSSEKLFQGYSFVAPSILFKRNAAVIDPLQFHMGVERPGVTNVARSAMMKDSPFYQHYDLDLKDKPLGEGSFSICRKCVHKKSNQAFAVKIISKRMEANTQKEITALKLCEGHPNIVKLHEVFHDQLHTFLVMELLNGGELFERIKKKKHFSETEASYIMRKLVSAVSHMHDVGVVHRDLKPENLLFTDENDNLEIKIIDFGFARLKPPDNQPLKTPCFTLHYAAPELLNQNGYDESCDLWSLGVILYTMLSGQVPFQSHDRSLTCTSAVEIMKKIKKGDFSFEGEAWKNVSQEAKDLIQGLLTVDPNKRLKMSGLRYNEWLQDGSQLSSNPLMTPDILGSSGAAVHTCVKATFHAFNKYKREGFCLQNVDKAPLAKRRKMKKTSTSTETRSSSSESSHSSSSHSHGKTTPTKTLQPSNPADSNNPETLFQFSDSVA
Chain of Serine/threonine-protein kinase pim-1 (Homo sapiens) (P11309 whole entry, looked up): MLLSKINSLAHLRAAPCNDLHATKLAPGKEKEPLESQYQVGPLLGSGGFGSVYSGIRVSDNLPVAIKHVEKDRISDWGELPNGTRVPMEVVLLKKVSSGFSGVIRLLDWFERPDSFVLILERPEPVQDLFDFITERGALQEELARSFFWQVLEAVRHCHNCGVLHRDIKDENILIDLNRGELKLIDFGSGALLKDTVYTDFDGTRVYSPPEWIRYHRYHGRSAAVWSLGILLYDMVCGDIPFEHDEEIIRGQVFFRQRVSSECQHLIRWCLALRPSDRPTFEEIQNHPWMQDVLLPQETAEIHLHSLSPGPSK
Chain of Tyrosine-protein kinase Lck (Homo sapiens) (P06239 2-509 limits assumed): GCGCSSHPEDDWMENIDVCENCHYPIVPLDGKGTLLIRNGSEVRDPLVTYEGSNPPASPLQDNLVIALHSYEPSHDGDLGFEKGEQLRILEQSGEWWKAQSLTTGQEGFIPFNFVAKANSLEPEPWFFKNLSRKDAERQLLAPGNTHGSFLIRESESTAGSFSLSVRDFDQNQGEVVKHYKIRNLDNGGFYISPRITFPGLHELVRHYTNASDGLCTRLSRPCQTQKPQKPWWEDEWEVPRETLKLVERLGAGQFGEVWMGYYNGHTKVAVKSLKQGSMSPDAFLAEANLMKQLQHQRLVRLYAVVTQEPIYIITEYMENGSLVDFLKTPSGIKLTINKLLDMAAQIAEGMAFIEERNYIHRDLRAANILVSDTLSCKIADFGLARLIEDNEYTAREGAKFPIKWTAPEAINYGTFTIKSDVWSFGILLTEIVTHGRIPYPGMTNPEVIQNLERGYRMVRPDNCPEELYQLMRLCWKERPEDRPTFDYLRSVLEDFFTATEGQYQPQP
Chain of Fibroblast growth factor receptor 4 (Homo sapiens) (P22455 22-802 limits assumed): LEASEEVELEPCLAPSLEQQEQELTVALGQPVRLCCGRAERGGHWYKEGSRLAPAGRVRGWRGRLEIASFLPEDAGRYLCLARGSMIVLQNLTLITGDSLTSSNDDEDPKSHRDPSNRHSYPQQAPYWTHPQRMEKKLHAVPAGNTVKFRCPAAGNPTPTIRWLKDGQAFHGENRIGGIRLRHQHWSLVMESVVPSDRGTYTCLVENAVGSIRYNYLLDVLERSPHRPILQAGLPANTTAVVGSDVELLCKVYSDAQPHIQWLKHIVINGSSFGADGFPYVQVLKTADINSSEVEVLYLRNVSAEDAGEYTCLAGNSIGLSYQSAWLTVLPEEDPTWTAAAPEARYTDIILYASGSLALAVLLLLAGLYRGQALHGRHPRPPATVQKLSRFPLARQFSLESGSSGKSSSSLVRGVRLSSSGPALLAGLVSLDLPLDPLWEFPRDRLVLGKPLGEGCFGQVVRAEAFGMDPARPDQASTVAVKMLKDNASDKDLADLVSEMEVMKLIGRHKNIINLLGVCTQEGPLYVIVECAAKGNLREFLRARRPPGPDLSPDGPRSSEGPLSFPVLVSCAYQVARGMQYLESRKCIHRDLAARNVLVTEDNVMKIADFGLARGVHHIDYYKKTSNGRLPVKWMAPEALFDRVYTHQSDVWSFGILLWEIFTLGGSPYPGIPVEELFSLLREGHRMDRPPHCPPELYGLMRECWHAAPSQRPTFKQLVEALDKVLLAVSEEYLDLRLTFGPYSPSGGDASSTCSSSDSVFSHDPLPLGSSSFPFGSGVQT
Chain of Protein kinase C eta type (Homo sapiens) (P24723 whole entry, the tested form may be a part): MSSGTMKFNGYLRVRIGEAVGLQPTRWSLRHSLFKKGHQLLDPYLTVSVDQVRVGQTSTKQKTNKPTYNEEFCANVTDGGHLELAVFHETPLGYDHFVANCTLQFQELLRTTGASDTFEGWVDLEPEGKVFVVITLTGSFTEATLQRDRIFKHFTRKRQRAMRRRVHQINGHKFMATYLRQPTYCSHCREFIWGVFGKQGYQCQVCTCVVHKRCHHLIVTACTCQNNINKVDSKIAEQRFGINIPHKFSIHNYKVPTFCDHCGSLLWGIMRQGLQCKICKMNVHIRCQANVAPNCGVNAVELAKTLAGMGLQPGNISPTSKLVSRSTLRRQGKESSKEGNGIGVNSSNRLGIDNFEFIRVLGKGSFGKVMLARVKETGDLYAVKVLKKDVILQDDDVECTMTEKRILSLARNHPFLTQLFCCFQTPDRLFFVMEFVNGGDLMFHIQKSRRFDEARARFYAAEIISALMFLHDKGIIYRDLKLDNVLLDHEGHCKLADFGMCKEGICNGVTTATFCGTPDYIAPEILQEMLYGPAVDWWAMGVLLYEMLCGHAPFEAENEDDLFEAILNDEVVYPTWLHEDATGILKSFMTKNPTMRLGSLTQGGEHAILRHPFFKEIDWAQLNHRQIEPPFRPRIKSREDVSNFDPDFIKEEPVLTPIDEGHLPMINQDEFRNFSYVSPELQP
Chain of Serine/threonine-protein kinase PAK 2 (Homo sapiens) (Q13177 whole entry, the tested form may be a part): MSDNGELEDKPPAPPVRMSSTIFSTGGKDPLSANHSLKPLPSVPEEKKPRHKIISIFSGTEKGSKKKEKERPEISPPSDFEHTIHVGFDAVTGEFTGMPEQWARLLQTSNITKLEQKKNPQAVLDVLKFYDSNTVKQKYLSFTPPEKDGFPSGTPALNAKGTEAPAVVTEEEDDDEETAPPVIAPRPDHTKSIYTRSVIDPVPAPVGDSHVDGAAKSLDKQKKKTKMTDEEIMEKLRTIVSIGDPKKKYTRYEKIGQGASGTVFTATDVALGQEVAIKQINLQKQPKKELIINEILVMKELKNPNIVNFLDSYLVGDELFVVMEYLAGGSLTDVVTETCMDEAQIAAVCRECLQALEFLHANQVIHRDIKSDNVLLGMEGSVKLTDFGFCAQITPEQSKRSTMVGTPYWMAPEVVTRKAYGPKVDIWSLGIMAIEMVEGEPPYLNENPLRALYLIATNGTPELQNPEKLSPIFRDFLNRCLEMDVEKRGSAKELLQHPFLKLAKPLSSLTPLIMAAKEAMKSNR

NCC1CN(c2ncnc3[nH]c4cnccc4c23)CCO1 (stereo not given)
inhibition [1]: 3% | inhibition [2]: 95.5%

NC1(Cc2ccc(Cl)cc2)CCN(c2ncnc3[nH]ccc23)CC1
inhibition [3]: 0%

C[C@H](CN(C)C)Oc1nc(Nc2cc3cccc(Cl)c3cn2)cnc1C#N
inhibition (Homo sapiens): 0%

c1nc(N2CCOCC2)c2nc[nH]c2n1
inhibition [4]: 24.5%

CNCc1ccc(-c2ncnc3[nH]cnc23)cc1
inhibition [5]: 30% | inhibition [6]: 39% | inhibition [7]: 78.5% | inhibition [8]: 72.5%

Clc1ccc(C2(c3ccc(-c4ncnc5[nH]cnc45)cc3)CCNCC2)cc1
inhibition [9]: 33%

NC1CCN(c2ncnc3[nH]ccc23)CC1
inhibition [10]: 2% | inhibition [11]: 4.5%

NCC1CCN(c2ncnc3[nH]ccc23)CC1
inhibition [12]: 27.5% | inhibition [13]: 87.5%

c1cnc2[nH]ccc2c1
inhibition [14]: 43%
